Results taken from paper PMC10373114, “CDK2 regulates collapsed replication fork repair in CCNE1-amplified ovarian cancer cells via homologous recombination” (NAR Cancer, 2023).

Tests used:
COV644 cells = assay: CyQuant proliferation assay; type: cell-based, human; conditions: 5 days
Method: (§1) OVCAR-3, COV644, or MCF-7 cells were seeded at 1000 cells/well in 384-well black, clear bottom plates and allowed to adhere overnight at 37°C/5% CO2. The following day, cells were treated with compound in a 10-point dose response, 1:4 dilutions. After 5 days of incubation, CyQuant Direct Proliferation Assay was performed according to the manufacturer's instructions. Data were processed with GraphPad Prism using a four-parameter fit to calculate IC50.

kinases tested (n = 468) = assay: KINOMEscan kinome selectivity; type: binding; conditions: fraction of kinases with <10% of control at 3 μM among 468 kinases tested
MCF-7 cells = assay: CyQuant proliferation assay; type: cell-based; conditions: Homo sapiens, MCF7, 120 h, read-out: MCF-7 IC50
Method: as §1

[1] = test system: CtIP bandshift and pRPA S4/8; assay: Western blot of HR signaling after etoposide; type: cell-based; conditions: 1 μM RO-3306 or 10 μM roscovitine, 24 h before 50 μM etoposide 2 h
Method: Cells were lysed in PhosphoSafe Lysis Buffer (EDM millipore, Cat#71296) and protein was quantified using the Pierce BCA Gold Kit (Thermo Fisher Scientific Cat#A53227). Lysate and lysis buffer were combined with 4× Loading Dye (Bio-Rad, Cat#1610747) and 2ME (Bio-Rad, Cat#1610710). Samples were loaded into Bio-Rad 4–20% Tris-glycine, 18-well SDS-PAGE (Cat#5671094). Transfer was performed using Bio-Rad dry transfer system (Trans-Blot Turbo) (Nitrocellulose membrane, 0.2 μM). Blocking was performed using LI-COR Odyssey Blocking Buffer (Cat#927–70001). Primary antibodies (CDK2 1:500, p16 1:1000, CCNE1 1:500, pRbT821 1:500, Actin R 1:2000, p21 1:1000, CCNA2 1:500, pRb S807/811 1:1000, pRb S780 1:500, CtIP 1:1000, Actin M 1:5000, pH2A.X Ser139 1:1000, pCDK2 T160 1:1000, pRPA S4/8 1:1000, CDK1 1:1000, pCDK1 Y15 1:1000, pChk1 S317 1:500, Total Chk1 1:1000, Tubulin 1:10 000) were combined with Odyssey Blocking Buffer and 0.1% Tween-20, and incubated at 4°C, rotating. Secondary antibodies were combined with Odyssey Blocking Buffer and 0.1% Tween-20 and incubated at room temperature, rotating. All secondary antibodies were diluted to 1:10 000 (LI-COR Cat#926–33212, Cat#926-33213, Cat#926-68070, Cat#926–68071, Cat#926–68076). Signals were detected using LI-COR Odyssey CLx Imaging Studio.

OVCAR-3 cells [2] = assay: CyQuant proliferation assay; type: cell-based, human; conditions: 5 days
Method: as §1

OVCAR-3 cells [3] = assay: Proliferative recovery after HU-induced replication fork collapse (IncuCyte confluence); type: cell-based, human; conditions: 500 nM, HU 2 mM 24 h pulse
Method: Figure S2. Replication fork stall signaling is dependent on CDK2, HR in CCNE1 - […]
(A) Cyclin E1 protein expression is strongly associated with CCNE1 copy number […]
amplification among TCGA patients with ovarian cancer (n=304) (Welch Two Sample t- […]
test, P = 2.3E-13). (B) Chemical structures of BLU1851. (C) Kinome tree for BLU1851 […]
at 3 µM (S-Score = 0.050). (D) Dose-response curves for BLU1851 enzyme inhibition […]
for indicated CDK family members. Error bars represent SD of at least duplicate independent experiments. (E) NanoBRET assessment of BLU1851 target engagement […]
in indicated CDK complexes expressed in HEK-293 cells. Error bars represent SD of at […]
least duplicate independent experiments. (F) Dose-response curve for pRb T821/826 […]
inhibition by BLU1851 in OVCAR-3 cells. Error bars represent SD of at least duplicate independent experiments. (G) Dose-response curve for pLamin S22 inhibition by BLU1851 in OVCAR-3 and COV644 cells. Error bars represent SD of duplicate independent experiments. (H) Dose-response curves in MCF-7, OVCAR-3 cells. […] (I) Quantification of pCHK1 S317 normalized to […]
allowed to recover in the presence of rabusertib. Confluence was calculated using […]
confluency at experimental endpoint. Confluence was measured by IncuCyte live cell […]
imaging and values were determined using an algorithm to detect cells from phase- […]

[4] = test system: homologous recombination (3X-FLAG ACTB reporter); assay: CRISPR/Cas9 recombination assay; type: cell-based, human; conditions: 25 or 250 nM BLU1851, 10 μM roscovitine; 72 h
Method: pBluescript SK II + and LentiCRISPR v2 plasmids were purchased from Genscript. LentiCRISPR v2 plasmids expressing single guide (sgRNA) against ACTB or scrambled sgRNA were constructed according to the depositor's instructions. To construct HR donor vectors against ACTB, sequences from −1554 to +1527 relative to the stop codon of ACTB plus 3× FLAG directly 5’ from the stop codon were synthesized and cloned into pBluescript SK II using restriction digest and ligation. Compounds were added to cells on the day of plasmid transfection. sgRNA/Cas9 and the donor plasmid were prepared in a 1:2 molar ratio; 1 μg of total DNA/well was transfected onto cells using Lipofectamine 2000 (Thermo Fisher Scientific Cat#11668019). Cells were harvested for Western Blot analysis 72 h later.

## CC(C)CC(=O)c1c(Nc2ccc(Cl)cc2Cl)[nH]c2c(Cl)ccc([N+](=O)[O-])c2c1=O [JH-RE-06]
COV644 cells
  sensitivity of COV644 cells compared with OVCAR-3 cells (proliferative IC50): more sensitive

## CC(=O)c1c(C)c2cnc(Nc3ccc(N4CCNCC4)cn3)nc2n(C2CCCC2)c1=O [Palbociclib, reference compound]
Kinases tested (n = 468)
  Kinome S (10): 0.041
MCF-7 cells
  IC50: 150 nM

## O=C1NC(=NCc2cccs2)S/C1=C\c1ccc2ncccc2c1 [RO-3306]
[1]
  HR signaling across cell lines tested: only a small effect in some cell lines

## N=C1NC(=O)/C(=C/c2ccc(O)cc2)S1 [mirin]
OVCAR-3 cells [2]
  sensitivity of OVCAR-3 cells compared with COV644 cells (proliferative IC50): more sensitive

## Cc1cnc(NC(=O)Nc2cc(Br)c(C)cc2OC[C@@H]2CNCCO2)cn1 [rabusertib]
OVCAR-3 cells [3]
  proliferation following HU treatment: suppressed the ability of OVCAR-3 cells to proliferate following HU treatment

## CC[C@H](CO)Nc1nc(NCc2ccccc2)c2ncn(C(C)C)c2n1 [roscovitine]
[4]
  recombination (3X-FLAG product): inhibited recombination in all cell lines
[1]
  HR signaling across cell lines tested: suppressed HR signaling in most cell lines tested

## COC1=C(N)C(=O)c2nc(-c3nc(C(=O)O)c(C)c(-c4ccc(OC)c(OC)c4O)c3N)ccc2C1=O [streptonigrin]
OVCAR-3 cells [2]
  sensitivity of OVCAR-3 cells compared with COV644 cells (proliferative IC50): more sensitive
